“And” between values parts separate entries of the source, which are not always exact repeats. Equal values may be shown once.
system: Huh7 psiCHECK-miR122 Renilla luciferase reporter, 48 h; test: miR-122 inhibitors in Huh7 reporter cells, dose response, cell-based, Huh7 psiCHECK-miR122, Renilla luciferase, cherry-pick (AID 652053)

Row | SMILES | AC40
1 | C[C@H](CO)N1C[C@H](C)[C@@H](CN(C)Cc2ccc3c(c2)OCO3)Oc2c(NC(=O)C3CC3)cccc2C1=O | 11.7 µM and 3.61 µM
2 | C[C@H](CO)N1C[C@H](C)[C@@H](CN(C)C(=O)Nc2ccc(C(F)(F)F)cc2)Oc2c(NC(=O)C3CCOCC3)cccc2C1=O | 29.8 µM
3 | Cc1ccc(C)c(S(=O)(=O)Nc2ccc(O)cc2)c1 | 8.22 µM
4 | COc1ccc(NS(=O)(=O)c2cc(Br)cc3c2N(C(C)=O)CC3)cc1 | 2.67 µM
5 | Cc1cc(S(=O)(=O)Nc2cc(C)c(O)c(C)c2)c(C)s1 | 24.9 µM
6 | O=S(=O)(Nc1ccc(Cl)cc1)c1cccc2cccnc12 | 4.21 µM
7 | Nc1ncc(Br)cc1S(=O)(=O)NCCc1ccccc1 | 0.647 µM
8 | C[C@H](CO)N1C[C@H](C)[C@@H](CN(C)CC2CC2)Oc2c(NC(=O)C3CC3)cccc2C1=O | 22.2 µM
9 | Cc1noc(C)c1S(=O)(=O)N(C)C[C@@H]1Oc2c(NC(=O)c3cnccn3)cccc2C(=O)N([C@@H](C)CO)C[C@@H]1C | 5.81 µM
10 | COc1ccc(S(=O)(=O)Nc2ccc(S(=O)(=O)N3CCCCC3)cc2)cc1C | 2.44 µM
11 | Cc1ccc(C2c3c(-c4ccccc4O)n[nH]c3C(=O)N2Cc2ccncc2)cc1 (configuration not stated) | 8.08 µM
12 | O=C(Cc1ccccc1)N1CC[C@@H]2[C@@H](CO)Nc3ccc(-c4cccc(F)c4)cc3[C@@H]21 | 7.15 µM
13 | Cc1cc(C)c(S(=O)(=O)Nc2cccc(S(=O)(=O)N3CCOCC3)c2)c(C)c1 | 2.71 µM
14 | COc1ccc(OC)c(S(=O)(=O)Nc2cc3c4c(c2)CCC(=O)N4CCC3)c1 | 0.84 µM
15 | Cc1cc(C)c(S(=O)(=O)NCc2ccccn2)cc1C | 9.76 µM
16 | COc1ccc(NS(=O)(=O)c2cc3c(cc2C)N(C)CCO3)cc1 | 2.04 µM
17 | COc1ccccc1C(=O)Nc1ccc2c(c1)C(=O)N(C)[C@H]1CC[C@H](CC(=O)NCc3ccc(Cl)c(Cl)c3)O[C@H]1CO2 | 0.333 µM
18 | Cc1nc2ccc(S(=O)(=O)Nc3ccccc3C)cc2s1 | 22.2 µM
19 | CC(C)C#Cc1ccc2c(c1)O[C@H](CN(C)C(=O)Nc1ccccc1)[C@@H](C)CN([C@@H](C)CO)S2(=O)=O | 2.08 µM
20 | CCC(=O)N1N=C(c2ccc(NS(=O)(=O)c3ccc(C)cc3)cc2)CC1c1ccco1 (configuration not stated) | 4.52 µM
21 | CC(C)(C)NS(=O)(=O)c1ccc(NC(=S)NC(=O)C2CC2)cc1 | 1.86 µM

Row | SMILES | AC40
22 | CC(C)NC(=O)Nc1cccc2c1O[C@@H](CN(C)Cc1ccc(C(F)(F)F)cc1)[C@H](C)CN([C@H](C)CO)C2=O | 1.52 µM
23 | CCCC(=O)Nc1ccc2c(c1)C(=O)N(C)[C@H]1CC[C@@H](CC(=O)NCc3cccc(F)c3)O[C@H]1CO2 | 0.762 µM
24 | CCOc1cc(C)c(Cl)cc1S(=O)(=O)NCc1ccco1 | 1.79 µM
25 | O=C(C1CCC1)N1CCc2cc(S(=O)(=O)NCc3ccco3)ccc21 | 12.3 µM
26 | COc1cc(NS(=O)(=O)c2ccc(Br)s2)cc(OC)c1 | 5.31 µM
27 | COc1ccc(C)cc1S(=O)(=O)Nc1cc(Cl)ccc1Cl | 2.5 µM
28 | COc1ccc(C(C)(C)C)cc1NS(=O)(=O)c1cccc2cccnc12 | 2.14 µM
29 | Cc1cc(S(=O)(=O)NC2CCCCC2)c(C)s1 | 1.44 µM
30 | COc1cccc(NS(=O)(=O)c2cc(C)sc2C)c1 | 1.43 µM
31 | Cc1cc(S(=O)(=O)Nc2cccc(O)c2)c(C)s1 | 31 µM
32 | C[C@H](CO)N1C[C@H](C)[C@H](CN(C)Cc2ccc(C(=O)Nc3ccccc3N)cc2)Oc2c(NC(=O)Nc3ccccc3)cccc2C1=O | 30.8 µM
33 | COc1ccccc1NS(=O)(=O)c1cc(N/C(=N/S(=O)(=O)c2ccccc2)c2ccc(F)cc2)ccc1Cl | 3.27 µM
34 | Cc1ccc(Cn2c(NS(=O)(=O)c3ccccc3)nc3ccccc32)cc1 | 2 µM
35 | C[C@@H]1CN([C@H](C)CO)C(=O)Cc2cc(NC(=O)Nc3ccccc3)ccc2O[C@@H]1CN(C)C(=O)Nc1cccc2ccccc12 | 0.756 µM
36 | O=C(Nc1cccc(S(=O)(=O)Nc2ccc(Cl)cc2)c1)c1ccccn1 | 1.8 µM
37 | Cn1c(=O)n(C)c2cc(NS(=O)(=O)c3ccc(C(C)(C)C)cc3)ccc21 | 8.31 µM
38 | O=S(=O)(N/N=C\c1cccn1-c1ccccc1)c1ccc2ccccc2c1 | 0.263 µM
39 | C[C@@H]1CN([C@@H](C)CO)C(=O)Cc2cc(N(C)C)ccc2O[C@H]1CN(C)Cc1ccc(C(=O)Nc2ccccc2N)cc1 | 10.1 µM
40 | COc1ccc(Cl)cc1NS(=O)(=O)c1cc(Cl)ccc1OC | 4.45 µM
41 | COc1cccc(N2CCN(C(=O)c3oc4ccccc4c3NC(=O)CCc3cc(OC)no3)CC2)c1 | 1.31 µM
42 | O=C1NC(c2cccc3ccccc23)Nc2ccccc21 (configuration not stated) | 5.65 µM
